Common to all, as to type: cell-based
Assay [1] has as its target T1, human glucagon receptor (Glucagon-R) (Homo sapiens, UniProt P47871).
T1 construct: expressed in transfected cells
Description: Glucagon receptor efficacy assay (cAMP AlphaScreen, CHO cells). The conditions noted are these: Table 1B; same protocol, different laboratory; read-out: EC50 hGCGR CHO-K1. From the text:
(§1) The cDNA encoding either the human glucagon receptor (Glucagon-R) (primary accession number P47871) or the human glucagon-like peptide 1 receptor (GLP-1R) (primary accession number P43220) were synthesized and cloned into a mammalian expression vector containing a Zeocin resistance marker.
(§2) The mammalian expression vectors encoding the Glucagon-R or the GLP-1-R were transfected into Chinese hamster ovary (CHO) cells by the Attractene method method. Stably expressing clones were obtained by Zeocin selection (250 μg/mL) upon limited dilution of cells resistant to the selection pressure. Glucagon-R and GLP-1-R cell clones expressing were picked, propagated and tested in the Glucagon-R and GLP-1-R efficacy assays as described below. One Glucagon-R expressing clone and one GLP-1-R expressing clone were chosen for compound profiling.
(§3) CHO cells expressing the human Glucagon-R, or human GLP-1-R were seeded 24 hours prior to the assay at 30,000 cells per well in 96-well microtiter plates in culture in 100 μl growth medium. On the day of analysis, growth medium was removed and the cells were washed once with 200 μl of assay buffer (Krebs-Ringer-buffer—KRBH). The buffer was removed and the cells were incubated for 15 min at room temperature in 10 μl KRBH (KRBH+10 mM HEPES, 5 mM NaHCO3, 0.1% (V/V) BSA) with 0.1 mM IBMX in deionized water containing increasing concentrations of test peptides. The reaction was stopped by the addition of lysis buffer (0.1% w/v BSA, 5 mM HEPES, 0.3% v/v Tween-20). After cell lysis for 10 min at room temperature, lysates were transferred to 384-well plates and 10 μl of acceptor/donorbead mixture as contained in the AlphaScreen™ cAMP Functional Assay Kit was added. After one hour of incubation at room temperature in the dark, the cAMP content was determined applying the AlphaScreen™ cAMP Functional Assay Kit from Perkin-Elmer according to manufacturer instructions. EC50 and relative efficacies compared to reference compounds (glucagon and GLP-1) were calculated applying computer aided curve fitting. The GLP-1/glucagon ratio is calculated as defined earlier.
Background: Bead proximity is the source of the signal in Alpha formats.

Assay [2] has as its target T2, human glucagon-like peptide 1 receptor (GLP-1R) (Homo sapiens, UniProt P43220).
T2 construct: expressed in transfected cells
Kind of assay: GLP-1 receptor efficacy assay (cAMP AlphaScreen, CHO cells). The settings on record: Table 1B; for Ratio GLP-1/Glucagon: EC50 [GLP-1R]/EC50 [Glucagon-R]; for EC50: same protocol, different laboratory, read-out: EC50 hGLP-1R CHO-K1.
From the text: as §1, §2, §3

The target in assay [3] is T3, endogenous GLP-1 receptors (Mus musculus, UniProt O35659).
T3 construct: Agonistic activity of the test compounds on endogenous GLP-1 receptors; endogenous in cells
T3 sequence (O35659 22-463): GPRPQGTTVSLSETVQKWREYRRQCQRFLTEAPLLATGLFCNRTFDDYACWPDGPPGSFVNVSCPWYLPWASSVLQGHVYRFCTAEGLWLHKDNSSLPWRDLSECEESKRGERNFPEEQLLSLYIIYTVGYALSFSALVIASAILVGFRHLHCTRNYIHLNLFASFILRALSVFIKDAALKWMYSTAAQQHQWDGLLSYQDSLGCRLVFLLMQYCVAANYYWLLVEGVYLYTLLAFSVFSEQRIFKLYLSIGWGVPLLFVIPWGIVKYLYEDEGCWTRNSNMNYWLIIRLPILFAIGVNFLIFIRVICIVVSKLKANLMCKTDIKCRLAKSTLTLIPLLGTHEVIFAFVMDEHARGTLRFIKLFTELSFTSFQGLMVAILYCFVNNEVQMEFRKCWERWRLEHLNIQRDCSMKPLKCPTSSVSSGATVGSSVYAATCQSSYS
Kind of assay: Agonistic activity on endogenous GLP-1 receptor (cAMP, murine insulinoma cell line). The conditions noted are these: intracellular cAMP, 15 minutes at 26° C.; read-out: EC50 GLP-1R (murine insulinoma cells). The protocol: Agonistic activity of the test compounds on endogenous GLP-1 receptors was determined using a murine insulinoma cell line. Intracellular cAMP was used an indicator of receptor activation.
Cells were cultured for 24 h at a density of 10,000 cells/well in a 384-well plate. Medium was removed and 10 μL KRBH buffer (NaCl 130 mM, KCl 3.6 mM, NaH2PO4 0.5 mM, MgSO4 0.5 mM, CaCl2) 1.5 mM) containing test compound or GLP-1 (at increasing concentrations from […] to 100 nM) or solvent control (0.1% (v/v) DMSO) was added to the wells for 15 minutes at a temperature of 26° C.
The cellular cAMP content is measured using the AlphaScreen cAMP Functional Assay Kit (Perkin Elmer). Measurement was performed using the Envision (PerkinElmer) according to manufacturer's recommendations.
All measurements were performed in quadruplicate.
Results were converted into cAMP concentrations using a cAMP standard curve prepared in KRBH buffer containing 0.1% (v/v) DMSO. The resulting cAMP curves were plotted as absolute cAMP concentrations (nM) over log (test compound concentration) and analyzed using the curve fitting program XLfit.
Parameters calculated to describe the both the potency as well as the agonistic activity of each test compound on the endogenous GLP-1 receptors were:
pEC50 (negative logarithmic value of EC50, a concentration resulting in a half-maximal elevation of cAMP levels, reflecting the potency of the test compound);
Percent control (% CTL)(% cAMP elevation for each test compound concentration normalized based on the GLP-1-induced maximum cAMP response (100% CTL)).

In assay [4] the target is T4, endogenous glucagon receptor (Rattus norvegicus, UniProt P30082).
T4 construct: Agonistic activity of the test compounds on endogenous glucagon receptor; endogenous in cells; host or cells: primary rat hepatocytes
Description: Agonistic activity on endogenous glucagon receptor (glycogen synthesis rate in primary rat hepatocytes). The conditions noted are these: inhibition of glycogen synthesis rate, 3 hours, read-out: EC50 GLP-1R Rat hepat. The protocol:
Agonistic activity of the test compounds on endogenous glucagon receptor was determined by measuring their effect on rate of glycogen synthesis in primary rat hepatocytes. Upon activation of the glucagon receptor, an inhibition of the glycogen synthesis rate is expected. Rate of glycogen synthesis was determined by counting the amount of radioactively labeled glucose incorporated into the cellular glycogen stores in a defined period of time.
Primary rat hepatocytes were cultured at a density of 40,000 cells/well in a 24-well plate for 24 hours at 37° C. and 5% CO2.
Medium was discarded and the cells washed with PBS. 180 μL of KRBH-based buffer containing 0.1% BSA and glucose at a concentration of 22.5 mM was then added to the wells, followed by test compound and 40 μCi/ml D-[U14C] glucose (20 μL each). Incubation was continued for 3 hours.
At the end of the incubation period, the incubation buffer was aspirated and cells washed once with ice-cold PBS before lysis by incubation for 30 min at room temperature with 100 μL 1 mol/l NaOH.
Cell lysates were transferred to 96-well filter plates and glycogen precipitated by incubating the filter-plates for 120 min at 4° C. followed by washing the filter plates 4 times with ice-cold ethanol (70%). The resulting precipitates were filtered to dryness and the amount of incorporated ^14C-glucose determined by using a Topcount scintillation counter according to manufacturer's recommendations.
Wells with vehicle controls (0.1% (v/v) DMSO in KRBH buffer) were included as reference for non-inhibited glycogen synthesis (100% CTL). Wells without added D-[U^14C] glucose were included as controls for non-specific background signal (subtracted from all values). Endogenous glucagon peptide was used as a positive control.
All treatments were performed at least in triplicates.
Parameters calculated to describe the both the potency as well as the agonistic activity of each test compound on the endogenous glucagon receptor are pEC50 and % CTL. % CTL is determined by calculating the percentage of CPM/well in the presence of the test compound compared to the CPM/well of the vehicle control after subtracting the background CPM/well: [CPM/well(basal)−CPM/well(sample)]*100/[CPM/well(basal)−CPM/well(control)]
An activator of the glucagon receptor will result in an inhibition of the glycogen synthesis rate and will give % CTL values between 0% CTL (complete inhibition) and 100% CTL (no observable inhibition).
The resulting activity curves were plotted as absolute counts (unit: cpm/sample) over log (test compound concentration) and analyzed using the curve fitting program XLfit.
pEC50 (negative logarithmic value of EC50) reflects the potency of the test compound.
The terms EC50 and pEC50 quoted in relation to GLP-1R activation could equally be regarded as IC50 and pIC50 in relation to glycogen synthesis.

Molecules are shown by their SMILES. *1 amine or outer side, *2 acyl side, *3 side chain or, on linkers, in order; H or OH if unused. Where a SMILES comes first, the peptide text is derived from it. Side-chain parts run from the residue outwards. [ ]: non-standard residue; d: D form. The star is where a group is joined. γGlu = O=C(O)[C@H](CCC(=O)[*:2])N[*:1]; Palmitoyl = CCCCCCCCCCCCCCCC(=O)*; Aib = CC(C)(N)C(=O)O

T4 sequence (P30082 27-485): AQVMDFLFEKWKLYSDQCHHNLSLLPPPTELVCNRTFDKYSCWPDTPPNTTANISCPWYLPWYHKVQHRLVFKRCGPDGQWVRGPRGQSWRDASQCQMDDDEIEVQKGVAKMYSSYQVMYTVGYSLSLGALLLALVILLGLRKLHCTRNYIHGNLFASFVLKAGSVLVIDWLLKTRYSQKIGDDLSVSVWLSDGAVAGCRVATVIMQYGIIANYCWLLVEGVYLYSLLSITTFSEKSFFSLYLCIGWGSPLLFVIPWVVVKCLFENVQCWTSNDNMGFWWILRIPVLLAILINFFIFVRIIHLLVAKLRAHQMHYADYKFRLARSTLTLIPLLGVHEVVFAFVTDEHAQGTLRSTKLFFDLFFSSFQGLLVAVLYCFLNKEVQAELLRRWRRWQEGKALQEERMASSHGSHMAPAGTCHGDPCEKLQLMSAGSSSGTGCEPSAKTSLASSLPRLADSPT
T1 sequence (P47871 26-477): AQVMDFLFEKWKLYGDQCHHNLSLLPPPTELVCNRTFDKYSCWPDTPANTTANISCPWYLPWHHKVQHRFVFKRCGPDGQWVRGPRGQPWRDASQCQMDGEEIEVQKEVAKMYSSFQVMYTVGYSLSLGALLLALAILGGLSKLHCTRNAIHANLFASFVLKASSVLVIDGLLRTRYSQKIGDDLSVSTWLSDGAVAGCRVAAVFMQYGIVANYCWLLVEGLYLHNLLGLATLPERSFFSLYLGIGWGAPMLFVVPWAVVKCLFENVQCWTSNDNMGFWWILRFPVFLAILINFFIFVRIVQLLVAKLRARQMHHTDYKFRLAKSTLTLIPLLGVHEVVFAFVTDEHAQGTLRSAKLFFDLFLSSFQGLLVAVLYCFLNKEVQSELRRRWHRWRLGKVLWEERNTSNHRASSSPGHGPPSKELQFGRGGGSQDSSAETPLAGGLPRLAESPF
T2 sequence (P43220 24-463): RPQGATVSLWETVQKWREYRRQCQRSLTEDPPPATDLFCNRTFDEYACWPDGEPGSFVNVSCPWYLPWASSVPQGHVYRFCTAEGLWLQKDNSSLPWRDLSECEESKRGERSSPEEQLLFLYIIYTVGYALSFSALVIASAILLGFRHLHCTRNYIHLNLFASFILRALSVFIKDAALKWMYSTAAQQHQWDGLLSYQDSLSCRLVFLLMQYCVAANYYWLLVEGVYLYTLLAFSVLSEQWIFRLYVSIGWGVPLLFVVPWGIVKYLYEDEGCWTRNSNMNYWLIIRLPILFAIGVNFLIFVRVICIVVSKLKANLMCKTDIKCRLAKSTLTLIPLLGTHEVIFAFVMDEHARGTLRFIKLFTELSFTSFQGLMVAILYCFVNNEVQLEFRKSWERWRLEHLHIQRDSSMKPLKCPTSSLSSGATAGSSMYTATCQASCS

As to `CCCCCCCCCCCCCCCC(=O)N[C@@H](CCC(=O)NCCCC[C@H](NC(=O)[C@H](CO)NC(=O)[C@H](CCC(=O)O)NC(=O)[C@H](CC(C)C)NC(=O)[C@H](Cc1ccc(O)cc1)NC(=O)[C@H](CCCCN)NC(=O)[C@H](CO)NC(=O)[C@H](Cc1ccc(O)cc1)NC(=O)[C@H](CC(=O)O)NC(=O)[C@H](CO)NC(=O)[C@@H](NC(=O)[C@H](Cc1ccccc1)NC(=O)[C@@H](NC(=O)CNC(=O)[C@H](CCC(N)=O)NC(=O)C(C)(C)NC(=O)[C@@H](N)Cc1c[nH]cn1)[C@@H](C)O)[C@@H](C)O)C(=O)N[C@@H](C)C(=O)N[C@@H](C)C(=O)N[C@@H](Cc1c[nH]cn1)C(=O)N[C@@H](CC(=O)O)C(=O)N[C@@H](Cc1ccccc1)C(=O)N[C@H](C(=O)N[C@@H](CCC(=O)O)C(=O)N[C@@H](Cc1c[nH]c2ccccc12)C(=O)N[C@@H](CC(C)C)C(=O)N[C@@H](CCC(=O)O)C(=O)N[C@@H](CO)C(=O)N[C@@H](C)C(N)=O)C(C)C)C(=O)O` [Compound 23, H-H-Aib-QGTFTSDYSKYLES-K(Hexadecanoyl-isoGlu)-AAHDFVEWLESA-NH2] (H-H[Aib]QGTFTSDYSKYLESK([γGlu-Palmitoyl])AAHDFVEWLESA-NH2), the EC50 (as a rule, the concentration at which the effect is half-maximal) in assay [1] worked out at 0.25 nM; in assay [2], 0.13 nM; in assay [3] it was 0.31 nM; in assay [4] it was 1.32 nM. Moreover, the “Ratio GLP-1/Glucagon” value in assay [2] is given as 0.52.
The like results for `CCCCCCCCCCCCCCCC(=O)N[C@@H](CCC(=O)NCCCC[C@H](NC(=O)[C@H](CO)NC(=O)[C@H](CCC(=O)O)NC(=O)[C@H](CC(C)C)NC(=O)[C@H](Cc1ccc(O)cc1)NC(=O)[C@H](CCCCN)NC(=O)[C@H](CO)NC(=O)[C@H](Cc1ccc(O)cc1)NC(=O)[C@H](CC(=O)O)NC(=O)[C@H](CO)NC(=O)[C@@H](NC(=O)[C@H](Cc1ccccc1)NC(=O)[C@@H](NC(=O)CNC(=O)[C@H](CCC(N)=O)NC(=O)C(C)(C)NC(=O)[C@@H](N)Cc1c[nH]cn1)[C@@H](C)O)[C@@H](C)O)C(=O)N[C@@H](C)C(=O)N[C@@H](C)C(=O)N[C@@H](CCC(=O)O)C(=O)N[C@@H](CC(=O)O)C(=O)N[C@@H](Cc1ccccc1)C(=O)N[C@H](C(=O)N[C@@H](CCC(=O)O)C(=O)N[C@@H](Cc1c[nH]c2ccccc12)C(=O)N[C@@H](CC(C)C)C(=O)N[C@@H](CCC(=O)O)C(=O)N[C@@H](CO)C(=O)N[C@@H](C)C(N)=O)C(C)C)C(=O)O` [Compound 24, H-H-Aib-QGTFTSDYSKYLES-K(Hexadecanoyl-isoGlu)-AAEDFVEWLESA-NH2] (H-H[Aib]QGTFTSDYSKYLESK([γGlu-Palmitoyl])AAEDFVEWLESA-NH2) were, in that order, 0.92 nM, 0.11 nM, 0.33 nM, 6.15 nM and 0.12.
As to `CCCCCCCCCCCCCCCC(=O)N[C@@H](CCC(=O)NCCCC[C@H](NC(=O)[C@H](CCC(=O)O)NC(=O)[C@H](CC(=O)O)NC(=O)[C@H](CC(C)C)NC(=O)[C@H](Cc1ccc(O)cc1)NC(=O)[C@H](CCCCN)NC(=O)[C@H](CO)NC(=O)[C@H](Cc1ccc(O)cc1)NC(=O)[C@H](CC(=O)O)NC(=O)[C@H](CO)NC(=O)[C@@H](NC(=O)[C@H](Cc1ccccc1)NC(=O)[C@@H](NC(=O)CNC(=O)[C@H](CCC(N)=O)NC(=O)[C@@H](CO)NC(=O)[C@@H](N)Cc1c[nH]cn1)[C@@H](C)O)[C@@H](C)O)C(=O)N[C@@H](C)C(=O)N[C@@H](C)C(=O)N[C@@H](CCCCN)C(=O)N[C@@H](CC(=O)O)C(=O)N[C@@H](Cc1ccccc1)C(=O)N[C@H](C(=O)N[C@@H](CCC(=O)O)C(=O)N[C@@H](Cc1c[nH]c2ccccc12)C(=O)N[C@@H](CC(C)C)C(=O)N[C@@H](CCC(=O)O)C(=O)N[C@@H](CO)C(=O)N[C@@H](C)C(N)=O)[C@@H](C)CC)C(=O)O` [Compound 25, H-H-DSer-QGTFTSDYSKYLDE-K(Hexadecanoyl-isoGlu)-AAKDFIEWLESA-NH2], the EC50 stood at 0.16 nM in assay [1], 0.31 nM in assay [2], 0.41 nM in assay [3] and 0.15 nM in assay [4]. Moreover, the “Ratio GLP-1/Glucagon” value in assay [2] worked out at 1.94.
